Source: US11076595B2, “1-(n,n-disubstituted carbamoyl) 4-(substituted sulfonyl)triazolin-5-one derivative, 4-(n,n-disubstituted carbamoyl) 1-(substituted sulfonyl)triazolin-5-one derivative, and herbicide containing said derivative as active ingredient” (HOKKO CHEMICAL INDUSTRY CO., LTD., priority 2017, dated 2021)

How the values were obtained:
Assay type in all cases: in vivo
Monochoria vaginalis [1] = test: Test Example 1: herbicidal effect test by soil treatment in paddy field; details: 120 g/10a, paddy soil treatment just after sowing, 14 days after treatment
How it was run: (§1)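 Weed suppression (%) was calculated at 14 days from mean plant dry weight relative to untreated pots, with duplicate pots per rate. The compound went into the flood water as a diluted emulsifiable concentrate (120 g a.i./10 are) immediately after sowing seeds 0–1 cm deep. Pots held ~3 cm water in a glasshouse.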

Lindernia pyxidaria [2] = test: as above; details: 120 g/10a, paddy soil treatment just after sowing, 14 days after treatment
How it was run: as §1

Echinochloa crus-galli [3] = test: as above; details: 120 g/10a, paddy soil treatment just after sowing, 14 days after treatment
How it was run: as §1

Scirpus juncoides [4] = test: as above; details: 120 g/10a, paddy soil treatment just after sowing, 14 days after treatment
How it was run: as §1

Chenopodium album [5] = test: Test Example 3: herbicidal effect test by soil treatment in upland field; details: upland field soil treatment 1 day after sowing; 120 g/10a; evaluated 14 days after treatment
Method: (§2) This test was performed with two replications per one formulation concentration plot, and 14 days after the formulation treatments, the weed suppression rate (%) was determined according to the following equation (Math. 1). Weed suppression rate (%)=(1−an average dry weight (g) of plants in treated plots/an average dry weight (g) of plants in untreated plots)×100 [Math. 1]
(§3) A pot having a size of 36 cm^2 was filled with field soil (alluvial soil) and after uniformly mixing the soil of the surface layer of 1 cm with 20 grains of each weed seed of crabgrass, Echinochloa crus-galli, Chenopodium album and Amaranthus viridis, the surface layer was pressed lightly. One day after the sowing, an emulsifiable concentrate prepared according to Formulation Example 5 by using the compound shown in Table 7 below was diluted with water, and the water-diluted formulation was sprayed on the soil surface at a ratio of 100 liter per 10 are. The application rate of the active ingredient, by conversion, corresponded to 120 g per 10 are. Fourteen days after the formulation treatment, the herbicidal effect was evaluated by the same criteria as in Test Example 1.

Echinochloa crus-galli [6] = test: as above; details: upland field soil treatment 1 day after sowing; 120 g/10a; evaluated 14 days after treatment
Method: as §2, §3

crabgrass [7] = test: as above; details: upland field soil treatment 1 day after sowing; 120 g/10a; evaluated 14 days after treatment
Method: as §2, §3

Amaranthus viridis [8] = test: as above; details: upland field soil treatment 1 day after sowing; 120 g/10a; evaluated 14 days after treatment
Method: as §2, §3

Monochoria vaginalis [9] = test: Test Example 2: herbicidal effect test by treatment during growing period in paddy field; details: treatment 7 days after sowing, 120 g/10a, evaluated 14 days after treatment
How it was run: (§4)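 Paddy soil in Wagner pots, flooded to ~3 cm; 30 seeds per species sown 0–1 cm deep, greenhouse-grown. Emulsifiable concentrate diluted in water and dripped into flood water 7 days after sowing at 120 g active ingredient per 10 are. Dry-weight suppression vs untreated assessed 14 days post-treatment, two replicates.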

Lindernia pyxidaria [10] = test: as above; details: treatment 7 days after sowing, 120 g/10a, evaluated 14 days after treatment
How it was run: as §4

Echinochloa crus-galli [11] = test: as above; details: treatment 7 days after sowing, 120 g/10a, evaluated 14 days after treatment
How it was run: as §4

Scirpus juncoides [12] = test: as above; details: treatment 7 days after sowing, 120 g/10a, evaluated 14 days after treatment
How it was run: as §4

Chenopodium album [13] = test: Test Example 4: herbicidal effect test by foliage treatment in upland field; details: upland field foliage treatment 7 days after sowing; 120 g/10a; evaluated 14 days after treatment
Method: as §2
as §3, with “Seven days” for “One day”, “8” for “7”

Echinochloa crus-galli [14] = test: as above; details: upland field foliage treatment 7 days after sowing; 120 g/10a; evaluated 14 days after treatment
Method: as §2
as §3, with “Seven days” for “One day”, “8” for “7”

crabgrass [15] = test: as above; details: upland field foliage treatment 7 days after sowing; 120 g/10a; evaluated 14 days after treatment
Method: as §2
as §3, with “Seven days” for “One day”, “8” for “7”

Amaranthus viridis [16] = test: as above; details: upland field foliage treatment 7 days after sowing; 120 g/10a; evaluated 14 days after treatment
Method: as §2
as §3, with “Seven days” for “One day”, “8” for “7”

Structure (SMILES)	weed suppression rate, Monochoria vaginalis (Monochoria vaginalis [1]) [%]	weed suppression rate, Lindemia pyxidaria (Lindernia pyxidaria [2]) [%]	weed suppression rate, Echinochloa crus-galli (Echinochloa crus-galli [3]) [%]	weed suppression rate, Scirpus juncoides (Scirpus juncoides [4]) [%]	herbicidal effect (weed suppression rate), Chenopodium album (Chenopodium album [5]) [%]	herbicidal effect (weed suppression rate), Echinochloa crus-galli (Echinochloa crus-galli [6]) [%]	herbicidal effect (weed suppression rate), Crabgrass (crabgrass [7]) [%]	herbicidal effect (weed suppression rate), Amaranthus viridis (Amaranthus viridis [8]) [%]	weed suppression rate, Monochoria vaginalis (Monochoria vaginalis [9]) [%]	weed suppression rate, Lindemia pyxidaria (Lindernia pyxidaria [10]) [%]	weed suppression rate, Echinochloa crus-galli (Echinochloa crus-galli [11]) [%]	weed suppression rate, Scirpus juncoides (Scirpus juncoides [12]) [%]	herbicidal effect (weed suppression rate), Chenopodium album (Chenopodium album [13]) [%]	herbicidal effect (weed suppression rate), Echinochloa crus-galli (Echinochloa crus-galli [14]) [%]	herbicidal effect (weed suppression rate), Crabgrass (crabgrass [15]) [%]	herbicidal effect (weed suppression rate), Amaranthus viridis (Amaranthus viridis [16]) [%]
CC(C)N(C(=O)n1ncn(S(=O)(=O)C(C)C)c1=O)c1ccc(Cl)nc1Cl [Compound 1-98]	90	90	100	90	80	80	90	90	90	80	100	90	80	80	90	90
Cc1ccc(N(C(=O)n2ncn(S(=O)(=O)C(C)C)c2=O)C(C)C)c(F)c1 [Compound 1-79]	80	80	90	90	80	80	90	90	80	80	90	90	80	80	90	90
CC(C)N(C(=O)n1ncn(S(=O)(=O)C2CCOCC2)c1=O)c1ccc(F)cc1F [Compound 1-1150]	–	–	–	–	100	100	100	100	–	–	–	–	80	80	90	90
CC(C)N(C(=O)n1ncn(S(=O)(=O)N2CCCCC2)c1=O)c1ccc(F)cc1F [Compound 1-1143]	80	80	90	90	80	80	90	90	80	80	90	90	–	–	–	–
CC(C)CN(C)S(=O)(=O)n1cnn(C(=O)N(c2ccc(F)cc2F)C(C)C)c1=O [Compound 1-1142]	80	80	100	80	80	80	90	90	80	80	90	90	–	–	–	–
